Where “and” joins values, the source holds several entries; their conditions need not be identical. Identical values can stand only once. Like-named read-outs stand apart in the source and are kept apart here.
Tests used:
[1] = tested on: CD19+CD11b+ and CD19+CD11b− cardiac lymphocytes; test: Transcriptional profiling (RNAseq, KEGG) of sorted cardiac B lymphocytes; assay type: in vivo, mouse; details: DTR+PFD hearts vs naïve
From the text: To gain insight into the mechanism(s) responsible for the immunomodulatory effects of Pirfenidone, we performed transcriptional profiling on CD19+CD11b+ and CD19+CD11b− cardiac lymphocytes that were FACS sorted from naïve, DT-injured mice fed normal chow, and DT-injured mice treated with Pirfenidone chow. […]
We performed transcriptional profiling of cardiac lymphocytes that were isolated from naïve and DTR injured hearts in the presence and absence of Pirfenidone. […] Single-end, 50 bp reads were obtained on an Illumina HiSeq 3000 and aligned to the IIlumina iGenomes GRCm38_Ensembl release of the mouse transcriptome using Tophat2.1(41), yielding an average of 1.8×107 aligned reads per sample. Gene-level quantitation was performed using HTSeq 2(42). mRNAs were included in downstream analyses if present in all biological replicates in any of the 6 experimental groups (CD19+CD11b+ and CD19+CD11b− from WT, DT and DT+PFD) at an abundance of at least 1 read per million. […] KEGG pathways within the following 3 categories were analyzed: signal transduction (3.2), signaling molecules and interactions (3.3), and immune system (5.1).

[2] = Plasma pharmacokinetics after IV or PO administration; assay type: in vivo, SD Rat; details: SD Rat
Protocol: Pirfenidone and Pegyonde-6 were administered at equimolar concentrations to rats IV or per os (PO) and serum concentrations measured at different time points to measure pharmacokinetic parameters. The drugs were solubilized in 5% Alcohol+20% PEG 300 in saline.

[3] = IV 40 mg/kg, individual rats 1-3, 40 mg/kg
[4] = PO 40 mg/kg, individual rats 7-9, 40 mg/kg

Cc1ccc(=O)n(-c2ccccc2)c1 [Pirfenidone, 5 methyl-1-phenyl-2-[H] pyridone]
KEGG pathways enriched after DT injury in CD19+CD11b+ lymphocytes ([1]; 6 pathways): not activated | KEGG pathways enriched after DT injury in CD19+CD11b− lymphocytes ([1]; with the exception of the hematopoietic cell lineage pathway): none of these pathways was significantly enriched | AUMC0-t, Mean ([2]; IV 40 mg/kg): 11482 h*h*ng/mL | AUMC0-∞, Mean ([2]; IV 40 mg/kg): 11490 h*h*ng/mL | CL(/F), Mean ([2]; IV 40 mg/kg): 28.87 mL/min/kg | Vss (/F), Mean ([2]; IV 40 mg/kg): 0.828 L/kg | Plasma concentrations of Pirfenidone ([2]; IV 40 mg/kg, 0.083 h, individual rats 1-3, 40 mg/kg): 34700 ng/mL and 33600 ng/mL | Plasma concentrations of Pirfenidone ([2]; IV 40 mg/kg, 0.25 h, individual rats 1-3, 40 mg/kg): 29300 ng/mL and 25600 ng/mL | Plasma concentrations of Pirfenidone ([2]; IV 40 mg/kg, 0.5 h, individual rats 1-3, 40 mg/kg): 19800 ng/mL and 16100 ng/mL | Plasma concentrations of Pirfenidone ([2]; IV 40 mg/kg, 1 h, individual rats 1-3, 40 mg/kg): 6130 ng/mL and 9860 ng/mL and 4840 ng/mL | Plasma concentrations of Pirfenidone ([2]; IV 40 mg/kg, 2 h, individual rats 1-3, 40 mg/kg): 394 ng/mL and 712 ng/mL and 225 ng/mL | Plasma concentrations of Pirfenidone ([2]; IV 40 mg/kg, 4 h, individual rats 1-3, 40 mg/kg): 6.12 ng/mL and 3.57 ng/mL | Plasma concentrations of Pirfenidone ([2]; IV 40 mg/kg, 8 h, individual rats 1-3, 40 mg/kg): BLOQ (Below lower limit of quantification (1 ng/mL)) | Plasma concentrations of Pirfenidone ([2]; IV 40 mg/kg, 24 h, individual rats 1-3): BLOQ (Below lower limit of quantification (1 ng/mL)) | AUC0-t [2, 3]: 27907 ng·h/mL and 21142 ng·h/mL | AUC0-∞ [2, 3]: 27910 ng·h/mL and 21144 ng·h/mL | AUMC0-t [2, 3]: 10270 h*h*ng/mL and 15155 h*h*ng/mL and 9021 h*h*ng/mL | AUMC0-∞ [2, 3]: 10277.2 h*h*ng/mL and 15166.3 h*h*ng/mL and 9027.6 h*h*ng/mL | CL(/F) [2, 3]: 31.17 mL/min/kg and 23.88 mL/min/kg and 31.53 mL/min/kg | Cmax [2, 3]: 34700 ng/mL and 33600 ng/mL | MRTINF [2, 3]: 32.6 min and 25.6 min | T1/2 [2, 3]: 17 min and 17.3 min | Vss (/F) [2, 3]: 0.898 L/kg and 0.779 L/kg and 0.808 L/kg | AUMC0-∞, Mean ([2]; PO 40 mg/kg): 15669 h*h*ng/mL | Plasma concentrations of Pirfenidone ([2]; PO 40 mg/kg, 0.25 h, individual rats 7-9, 40 mg/kg): 8330 ng/mL and 9540 ng/mL | Plasma concentrations of Pirfenidone ([2]; PO 40 mg/kg, 0.5 h, individual rats 7-9, 40 mg/kg): 6700 ng/mL and 8820 ng/mL | Plasma concentrations of Pirfenidone ([2]; PO 40 mg/kg, 1 h, individual rats 7-9, 40 mg/kg): 3540 ng/mL and 3570 ng/mL | Plasma concentrations of Pirfenidone ([2]; PO 40 mg/kg, 2 h, individual rats 7-9, 40 mg/kg): 2000 ng/mL and 2140 ng/mL | Plasma concentrations of Pirfenidone ([2]; PO 40 mg/kg, 4 h, individual rats 7-9, 40 mg/kg): 7.72 ng/mL and 830 ng/mL and 126 ng/mL | Plasma concentrations of Pirfenidone ([2]; PO 40 mg/kg, 24 h, individual rats 7-9): BLOQ (Below lower limit of quantification (1 ng/mL)) | AUC0-t [2, 4]: 12787 ng·h/mL and 12172 ng·h/mL | AUC0-∞ [2, 4]: 12820 ng·h/mL and 12353 ng·h/mL | AUMC0-t [2, 4]: 9588 h*h*ng/mL and 20769 h*h*ng/mL and 14572 h*h*ng/mL | AUMC0-∞ [2, 4]: 9604 h*h*ng/mL and 21076 h*h*ng/mL and 16326 h*h*ng/mL | Cmax [2, 4]: 8330 ng/mL and 9540 ng/mL | MRTINF [2, 4]: 98.64 min and 79.32 min | T1/2 [2, 4]: 18.8 min and 57.5 min and 70.38 min | Tmax ([2]; Sprague-Dawley, plasma, IV 40 mg/kg, read-out: Tmax, Mean): 4.98 min | concentration at 0.083 h ([2]; Sprague-Dawley, rat, plasma, iv, 40 mg/kg, IV 40 mg/kg, 0.083 h, individual rats 1-3, read-out: Plasma concentrations of Pirfenidone): 32900 ng/mL | concentration at 0.083 h ([2]; Sprague-Dawley, rat, plasma, iv, 40 mg/kg, IV 40 mg/kg, 0.083 h, read-out: Plasma concentrations of Pirfenidone, Mean): 33700 ng/mL | concentration at 0.25 h ([2]; Sprague-Dawley, rat, plasma, iv, 40 mg/kg, IV 40 mg/kg, 0.25 h, individual rats 1-3, read-out: Plasma concentrations of Pirfenidone): 21400 ng/mL | concentration at 0.25 h ([2]; Sprague-Dawley, rat, plasma, iv, 40 mg/kg, IV 40 mg/kg, 0.25 h, read-out: Plasma concentrations of Pirfenidone, Mean): 25400 ng/mL | concentration at 0.5 h ([2]; Sprague-Dawley, rat, plasma, iv, 40 mg/kg, IV 40 mg/kg, 0.5 h, individual rats 1-3, read-out: Plasma concentrations of Pirfenidone): 15800 ng/mL | concentration at 0.5 h ([2]; Sprague-Dawley, rat, plasma, iv, 40 mg/kg, IV 40 mg/kg, 0.5 h, read-out: Plasma concentrations of Pirfenidone, Mean): 17200 ng/mL | concentration at 1 h ([2]; Sprague-Dawley, rat, plasma, iv, 40 mg/kg, IV 40 mg/kg, 1 h, read-out: Plasma concentrations of Pirfenidone, Mean): 6940 ng/mL | concentration at 2 h ([2]; Sprague-Dawley, rat, plasma, iv, 40 mg/kg, IV 40 mg/kg, 2 h, read-out: Plasma concentrations of Pirfenidone, Mean): 444 ng/mL | concentration at 4 h ([2]; Sprague-Dawley, rat, plasma, iv, 40 mg/kg, IV 40 mg/kg, 4 h, individual rats 1-3, read-out: Plasma concentrations of Pirfenidone): 4.27 ng/mL | concentration at 4 h ([2]; Sprague-Dawley, rat, plasma, iv, 40 mg/kg, IV 40 mg/kg, 4 h, read-out: Plasma concentrations of Pirfenidone, Mean): 4.7 ng/mL | concentration at 8 h ([2]; Sprague-Dawley, rat, plasma, iv, 40 mg/kg, IV 40 mg/kg, 8 h, individual rats 1-3, read-out: Plasma concentrations of Pirfenidone): 1.22 ng/mL | concentration at 8 h ([2]; Sprague-Dawley, rat, plasma, iv, 40 mg/kg, IV 40 mg/kg, 8 h, read-out: Plasma concentrations of Pirfenidone, Mean): 1.22 ng/mL | AUC0-t ([2]; Sprague-Dawley, rat, plasma, iv, 40 mg/kg, IV 40 mg/kg, read-out: AUC0-t, Mean): 23500 ng·h/mL | AUC(0-inf) ([2]; Sprague-Dawley, rat, plasma, iv, 40 mg/kg, IV 40 mg/kg, read-out: AUC0-∞, Mean): 23500 ng·h/mL | Cmax ([2]; Sprague-Dawley, rat, plasma, iv, 40 mg/kg, IV 40 mg/kg, read-out: Cmax, Mean): 33700 ng/mL | MRT inf ([2]; Sprague-Dawley, rat, plasma, iv, 40 mg/kg, IV 40 mg/kg, read-out: MRTINF, Mean): 29 min | half-life ([2]; Sprague-Dawley, rat, plasma, iv, 40 mg/kg, IV 40 mg/kg, read-out: T1/2, Mean (converted)): 21.4 min | concentration at 0.25 h ([2]; Sprague-Dawley, rat, plasma, po, 40 mg/kg, PO 40 mg/kg, 0.25 h, individual rats 7-9, read-out: Plasma concentrations of Pirfenidone): 9130 ng/mL | concentration at 0.25 h ([2]; Sprague-Dawley, rat, plasma, po, 40 mg/kg, PO 40 mg/kg, 0.25 h, read-out: Plasma concentrations of Pirfenidone, Mean): 9000 ng/mL | concentration at 0.5 h ([2]; Sprague-Dawley, rat, plasma, po, 40 mg/kg, PO 40 mg/kg, 0.5 h, individual rats 7-9, read-out: Plasma concentrations of Pirfenidone): 8450 ng/mL | concentration at 0.5 h ([2]; Sprague-Dawley, rat, plasma, po, 40 mg/kg, PO 40 mg/kg, 0.5 h, read-out: Plasma concentrations of Pirfenidone, Mean): 7990 ng/mL | concentration at 1 h ([2]; Sprague-Dawley, rat, plasma, po, 40 mg/kg, PO 40 mg/kg, 1 h, individual rats 7-9, read-out: Plasma concentrations of Pirfenidone): 5110 ng/mL | concentration at 1 h ([2]; Sprague-Dawley, rat, plasma, po, 40 mg/kg, PO 40 mg/kg, 1 h, read-out: Plasma concentrations of Pirfenidone, Mean): 4070 ng/mL | concentration at 2 h ([2]; Sprague-Dawley, rat, plasma, po, 40 mg/kg, PO 40 mg/kg, 2 h, individual rats 7-9, read-out: Plasma concentrations of Pirfenidone): 1190 ng/mL | concentration at 2 h ([2]; Sprague-Dawley, rat, plasma, po, 40 mg/kg, PO 40 mg/kg, 2 h, read-out: Plasma concentrations of Pirfenidone, Mean): 1780 ng/mL | concentration at 4 h ([2]; Sprague-Dawley, rat, plasma, po, 40 mg/kg, PO 40 mg/kg, 4 h, read-out: Plasma concentrations of Pirfenidone, Mean): 321 ng/mL | concentration at 8 h ([2]; Sprague-Dawley, rat, plasma, po, 40 mg/kg, PO 40 mg/kg, 8 h, read-out: Plasma concentrations of Pirfenidone, Mean): 65.3 ng/mL | Cmax ([2]; Sprague-Dawley, rat, plasma, po, 40 mg/kg, PO 40 mg/kg, individual rats 7-9, read-out: Cmax): 9130 ng/mL | MRT inf ([2]; Sprague-Dawley, rat, plasma, po, 40 mg/kg, PO 40 mg/kg, individual rats 7-9, read-out: MRTINF): 52 min | AUC0-t ([2]; Sprague-Dawley, rat, serum, iv, 40 mg/kg, IV 40 mg/kg, individual rats 1-3, read-out: AUC0-t): 21400 ng·h/mL | AUC(0-inf) ([2]; Sprague-Dawley, rat, serum, iv, 40 mg/kg, IV 40 mg/kg, individual rats 1-3, read-out: AUC0-∞): 21400 ng·h/mL | Cmax ([2]; Sprague-Dawley, rat, serum, iv, 40 mg/kg, IV 40 mg/kg, individual rats 1-3, read-out: Cmax): 32900 ng/mL | MRT inf ([2]; Sprague-Dawley, rat, serum, iv, 40 mg/kg, IV 40 mg/kg, individual rats 1-3, read-out: MRTINF): 28.8 min | half-life ([2]; Sprague-Dawley, rat, serum, iv, 40 mg/kg, IV 40 mg/kg, individual rats 1-3, read-out: T1/2 (converted)): 30 min | AUC0-t ([2]; Sprague-Dawley, rat, serum, po, 40 mg/kg, PO 40 mg/kg, individual rats 7-9, read-out: AUC0-t): 11100 ng·h/mL | AUC(0-inf) ([2]; Sprague-Dawley, rat, serum, po, 40 mg/kg, PO 40 mg/kg, individual rats 7-9, read-out: AUC0-∞): 11100 ng·h/mL | AUC0-t ([2]; Sprague-Dawley, rat, serum, po, 40 mg/kg, PO 40 mg/kg, read-out: AUC0-t, Mean): 12000 ng·h/mL | AUC(0-inf) ([2]; Sprague-Dawley, rat, serum, po, 40 mg/kg, PO 40 mg/kg, read-out: AUC0-∞, Mean): 12100 ng·h/mL | Cmax ([2]; Sprague-Dawley, rat, serum, po, 40 mg/kg, PO 40 mg/kg, read-out: Cmax, Mean): 9000 ng/mL | MRT inf ([2]; Sprague-Dawley, rat, serum, po, 40 mg/kg, PO 40 mg/kg, read-out: MRTINF, Mean): 76.8 min | half-life ([2]; Sprague-Dawley, rat, serum, po, 40 mg/kg, PO 40 mg/kg, read-out: T1/2, Mean (converted)): 48.9 min | Tmax ([2]; Sprague-Dawley, serum, IV 40 mg/kg, individual rats 1-3, read-out: Tmax): 4.98 min | bioavailability ([2]; Sprague-Dawley, serum, PO 40 mg/kg vs IV 40 mg/kg): 22.6% | Tmax ([2]; Sprague-Dawley, serum, PO 40 mg/kg, read-out: Tmax, Mean): 15 min
